The text below walks through data of ChEMBL document CHEMBL1144462, “Spread in an Italian hospital of a clonal Acinetobacter baumannii strain producing the TEM-92 extended-spectrum beta-lactamase” (2007).

For experiment [1], the system named is Acinetobacter baumannii. Put plainly: Antibacterial activity against TEM92 ESBL-producing Acinetobacter baumannii by CLSI method. In kind it is functional.
Experiment [2] concerns Acinetobacter baumannii. Put plainly: Antibacterial activity against Acinetobacter baumannii by CLSI method. The format is functional.

As to `C[C@@H](O)[C@H]1C(=O)N2C(C(=O)O)=C(S[C@@H]3CN[C@H](C(=O)N(C)C)C3)[C@H](C)[C@H]12` [MEROPENEM], in the experiment with Acinetobacter baumannii [1], the MIC – broadly, the least concentration at which growth counts as inhibited – is at most 2 µg/mL.

As for `C[C@H]1COc2c(N3CCN(C)CC3)c(F)cc3c(=O)c(C(=O)O)cn1c23.C[C@H]1COc2c(N3CCN(C)CC3)c(F)cc3c(=O)c(C(=O)O)cn1c23.O` [LEVOFLOXACIN], the MIC in the experiment with Acinetobacter baumannii [1] was over 32 µg/mL.

Regarding `CO/N=C(\C(=O)N[C@@H]1C(=O)N2C(C(=O)O)=C(COC(C)=O)CS[C@H]12)c1csc(N)n1` [CEFOTAXIME], the MIC with Acinetobacter baumannii [2] is at least 16 µg/mL; in the experiment with Acinetobacter baumannii [1], over 128 µg/mL.

Regarding `C[C@@H](O)[C@H]1C(=O)N2C(C(=O)O)=C(SCCNC=N)C[C@H]12` [IMIPENEM ANHYDROUS], the MIC against Acinetobacter baumannii [2] was at least 8 µg/mL; against Acinetobacter baumannii [1], at most 1 µg/mL.

`CO/N=C(\C(=O)N[C@@H]1C(=O)N2C(C(=O)O)=C(CSc3nc(=O)c(O)nn3C)CS[C@H]12)c1csc(N)n1` [CEFTRIAXONE]: the MIC against Acinetobacter baumannii [1] is over 128 µg/mL.

The molecule `NCC[C@H](O)C(=O)N[C@@H]1C[C@H](N)[C@@H](O[C@H]2O[C@H](CN)[C@@H](O)[C@H](O)[C@H]2O)[C@H](O)[C@H]1O[C@H]1O[C@H](CO)[C@@H](O)[C@H](N)[C@H]1O` [AMIKACIN] gave an MIC against Acinetobacter baumannii [1] of at most 8 µg/mL.

GENTAMICIN showed an MIC in the experiment with Acinetobacter baumannii [1] of over 128 µg/mL.

As for `CC(C)(O/N=C(\C(=O)N[C@@H]1C(=O)N2C(C(=O)[O-])=C(C[n+]3ccccc3)CS[C@H]12)c1csc(N)n1)C(=O)O` [CEFTAZIDIME], the MIC was at least 16 µg/mL in the experiment with Acinetobacter baumannii [2] and over 128 µg/mL with Acinetobacter baumannii [1].

In the case of `NC[C@H]1O[C@H](O[C@H]2[C@H](O)[C@@H](O[C@H]3O[C@H](CO)[C@@H](O)[C@H](N)[C@H]3O)[C@H](N)C[C@@H]2N)[C@H](N)C[C@@H]1O` [TOBRAMYCIN], in the experiment with Acinetobacter baumannii [1], the minimum inhibitory concentration (MIC) is over 32 µg/mL.

In the experiment on Acinetobacter baumannii [1], `CCN1CCN(C(=O)N[C@@H](C(=O)N[C@@H]2C(=O)N3[C@@H]2SC(C)(C)[C@@H]3C(=O)O)c2ccccc2)C(=O)C1=O` [PIPERACILLIN] registered an MIC of over 128 µg/mL.
